Values quoted from earlier work in patent publication US20080003280A1, “Combination cough treatment compounds and method of treating common coughs” (priority 2006, published 2008).

Columns and labels:
[1] = system: cough induced with a capsaicin challenge
cough [2] = system: cough
cough [3] = conditions: patients with an upper respiratory tract infection; in combination with a decongestant

For `Cn1cnc2c1c(=O)[nH]c(=O)n2C` [Theobromine, 3,7-dihydro-3,7-dimethyl-1H-purine-2,6-dione], the mucociliary clearance ([1]; discovered in the same study) is listed as “stimulates mucociliary clearance”, the toxicity ([1]; discovered in the same study) is listed as “low toxicity” and the antitussive effect ([1]; patients, capsaicin challenge, in comparison to codeine and caffeine, FIG. 2) is listed as “strong and long lasting antitussive effect, comparable, in fact to codeine”.

In the case of `COc1ccc2c(c1)[C@]13CCCC[C@@H]1[C@H](C2)N(C)CC3` [dextromethorphan], the cough suppression (cough [2]; 60 mg/dose in adults) is given as “Significant cough suppression” and the antitussive effect (cough [2]; adults, dose 15-30 mg (30 mg in FIG. 4), versus placebo) is given as “no greater than placebo”.

In the case of `CN(C)CCC(c1ccc(Br)cc1)c1ccccn1` (stereo not drawn) [brompheniramine], the effect on cough (cough [3]) is given as “improvement in cough”.
